Results from patent publication US12053467B2, “Method of treating fibrosis” (NovMeta Pharma Co., Ltd., priority 2020, dated 2024).

Tests used:
[1] = test system: bleomycin (BLM)-induced pulmonary fibrosis; experiment: Bleomycin-induced pulmonary fibrosis mouse model, overall effect; type: in vivo, ICR mice; conditions: 5, 25, 50 and 100 mg/kg/day oral, 4 weeks; compared to BLM alone group; FIGS. 1-7
Experimental: (§1) Seven-week-old male ICR mice from Koatech Co. Ltd (Gyeonggi-do, Korea). All animal experiments were approved by the Ethics Review Committee of the Advanced Bio Convergence Center, Republic of Korea. Mice were housed in specific pathogen-free conditions with a 12 hr light-dark cycle and had free access to water and food. Body weight and caloric intake were monitored throughout the experiments. The mice were housed in single cage and food intake was calculated of each animals in the cage. 5 or 25 or 50 or 100 mg/kg/day CHP monohydrate, 5 mg/kg/day CHP+10 mg/kg/day Zn, or PBS (vehicle control), was orally administered daily for 4 weeks. At the conclusion of the in vivo experiment, the mice were sacrificed and tissues were collected and weighed. Tissue samples were stored at −80° C. until analysis. Mice maintained under anesthesia with isoflurane were intravenously administered bleomycin 75 mg/kg in saline. The first administration of CHP hydrate or CHP hydrate+Zn was performed 30 min after bleomycin administration.

[2] = test system: Collagen 4 (Col4); experiment: Col4 mRNA (real-time PCR) in bleomycin-induced pulmonary fibrosis mice; type: in vivo, ICR mice; conditions: lung, 5, 25, 50 and 100 mg/kg/day oral, daily for 4 weeks, vs BLM alone (set 1.0)
Experimental: as §1, with “analysis.” for “analysis. Mice maintained under anesthesia with isoflurane were intravenously administered bleomycin 75 mg/kg in saline. The first administration of CHP hydrate or CHP hydrate+Zn was performed 30 min after bleomycin administration.”
(§2) Mice maintained under anesthesia with isoflurane were intravenously administered bleomycin 75 mg/kg in saline. […]
(§3) Total RNA was prepared by an RNeasy Mini kit (QIAGEN) according to the manufacturer's instructions. RNA integrity was assessed by an automated microfluidics-based system (Bioanalyzer 2100, Agilent, Palo Alto, CA, USA). […] A melt curve was produced to confirm a single gene-specific peak and detect primer/dimer formation by heating the samples from 65 to 95° C. in 0.5° C. increments with a dwell time at each temperature of 10 sec while continuously monitoring fluorescence. […]

[3] = test system: α-smooth muscle actin (aSMA); experiment: αSMA mRNA (real-time PCR) in bleomycin-induced pulmonary fibrosis mice; type: in vivo, ICR mice; conditions: lung, 5, 25, 50 and 100 mg/kg/day oral, daily for 4 weeks, vs BLM alone (set 1.0)
Experimental: as §1, with “analysis.” for “analysis. Mice maintained under anesthesia with isoflurane were intravenously administered bleomycin 75 mg/kg in saline. The first administration of CHP hydrate or CHP hydrate+Zn was performed 30 min after bleomycin administration.”
as §2, §3

[4] = pKa of CHP hydrate material; type: physicochemical; conditions: characterising feature (b)
[5] = test system: lung hydroxyproline (collagen deposition); experiment: Hydroxyproline assay of lung in bleomycin-induced IPF mice; type: in vivo, ICR mice; conditions: 5, 25, 50 and 100 mg/kg/day oral, daily for 4 weeks, vs BLM alone
Experimental: as §1, with “analysis.” for “analysis. Mice maintained under anesthesia with isoflurane were intravenously administered bleomycin 75 mg/kg in saline. The first administration of CHP hydrate or CHP hydrate+Zn was performed 30 min after bleomycin administration.”
(§4) Mice maintained under anesthesia with isoflurane were intravenously administered bleomycin 75 mg/kg in saline. The first administration of CHP hydrate or CHP hydrate+Zn was performed 30 min after bleomycin administration.
Collagen deposition was determined by measuring the total hydroxyproline (HYP) content, which was measured by a HYP assay kit according to the provided manufacturer's protocol. […] After neutralization with hydrochloric acid, the hydrolyzation products were diluted with distilled water, and assessed at 550 nm and expressed as ug/10 mg.

[6] = test system: Collagen 1 (Col1); experiment: Col1 mRNA (real-time PCR) in bleomycin-induced pulmonary fibrosis mice; type: in vivo, ICR mice; conditions: lung, 5, 25, 50 and 100 mg/kg/day oral, daily for 4 weeks, vs BLM alone (set 1.0)
Experimental: as §1, with “analysis.” for “analysis. Mice maintained under anesthesia with isoflurane were intravenously administered bleomycin 75 mg/kg in saline. The first administration of CHP hydrate or CHP hydrate+Zn was performed 30 min after bleomycin administration.”
as §2, §3

[7] = test system: Collagen 3 (Col3); experiment: Col3 mRNA (real-time PCR) in bleomycin-induced pulmonary fibrosis mice; type: in vivo, ICR mice; conditions: lung, 5, 25, 50 and 100 mg/kg/day oral, daily for 4 weeks, vs BLM alone (set 1.0)
Experimental: as §1, with “analysis.” for “analysis. Mice maintained under anesthesia with isoflurane were intravenously administered bleomycin 75 mg/kg in saline. The first administration of CHP hydrate or CHP hydrate+Zn was performed 30 min after bleomycin administration.”
as §2, §3

[8] = test system: fibronectin; experiment: Fibronectin mRNA (real-time PCR) in bleomycin-induced pulmonary fibrosis mice; type: in vivo, ICR mice; conditions: lung; 5, 25, 50 and 100 mg/kg/day oral, daily for 4 weeks; vs BLM alone (set 1.0)
Experimental: as §1, with “analysis.” for “analysis. Mice maintained under anesthesia with isoflurane were intravenously administered bleomycin 75 mg/kg in saline. The first administration of CHP hydrate or CHP hydrate+Zn was performed 30 min after bleomycin administration.”
as §2, §3

[9] = test system: zinc absorption and uptake by muscle tissues and by intestinal segments; conditions: Life Sciences 70 (2001), 337-348; cited from earlier work
[10] = test system: transforming growth factor-β (TGF-β); experiment: TGF-β mRNA (real-time PCR) in bleomycin-induced pulmonary fibrosis mice; type: in vivo, ICR mice; conditions: lung; 5, 25, 50 and 100 mg/kg/day oral, daily for 4 weeks; vs BLM alone (set 1.0)
Experimental: as §1, with “analysis.” for “analysis. Mice maintained under anesthesia with isoflurane were intravenously administered bleomycin 75 mg/kg in saline. The first administration of CHP hydrate or CHP hydrate+Zn was performed 30 min after bleomycin administration.”
as §2, §3

[11] = test system: fibronectin; experiment: Western blot of fibronectin in bleomycin-induced pulmonary fibrosis mice; type: in vivo, ICR mice; conditions: CHP 5 mg/kg oral, daily for 4 weeks; compared to BLM group
Experimental: as §1, with “analysis.” for “analysis. Mice maintained under anesthesia with isoflurane were intravenously administered bleomycin 75 mg/kg in saline. The first administration of CHP hydrate or CHP hydrate+Zn was performed 30 min after bleomycin administration.”
as §4
20-30 μg of lysates were separated on BOLT™ 4-12% Bis-Tris Plus gels with MES running buffer and transferred to nitrocellulose membranes using TRANS-BLOT® TURBO™ Transfer System (Bio-Rad). […]

Compound	inflammation and fibrosis biomarkers [1]	relative Col4 mRNA expression level ([2]; hydrate)	relative αSMA mRNA expression level ([3]; hydrate)	pKa [4]	lung hydroxyproline (HYP) content / accumulation of collagen in the lung ([5]; hydrate)	relative Col1 mRNA expression level ([6]; hydrate)	relative Col3 mRNA expression level ([7]; hydrate)	relative Col4 mRNA expression level [2]	relative fibronectin mRNA expression level [8]	relative αSMA mRNA expression level [3]	zinc absorption and uptake [9]	relative TGF-β mRNA expression level [10]	fibronectin protein levels (Western blotting) [11]	lung hydroxyproline (HYP) content / accumulation of collagen in the lung [5]	relative Col1 mRNA expression level [6]	relative Col3 mRNA expression level [7]
O=C1N[C@@H](Cc2cnc[nH]2)C(=O)N2CCC[C@@H]12 [CHP hydrate, cyclo(-His-Pro) hydrate]	significantly decreased	dramatically reduced	dramatically reduced	~6.4	significantly decreased	dramatically reduced	dramatically reduced	–	–	–	–	–	–	–	–	–
O=C1N[C@@H](Cc2cnc[nH]2)C(=O)N2CCC[C@@H]12 [CHP, Cyclo(-His-Pro)]	–	–	–	–	–	–	–	significantly reduces	significantly reduces	significantly reduces	enhanced	significantly reduces	dramatically reduced	significantly reduces	significantly reduces	significantly reduces
